# Source: patent US8586505B2 (SDS Biotech K. K., priority 2009, dated 2013)
# What was measured:
# Format in all cases: in vivo
# [1] = tested on: Pseudoperonospora cubensis; assay: Test of examining control effect on Pseudoperonospora cubensis (potted cucumber plants); settings: 96 h, 10% wettable powder adjusted to 125 ppm, 15 ml/pot sprayed on potted cucumber plants one day before spray inoculation, assessed after 1 day wet chamber and 3 days greenhouse, read-out: Determination of control effect (preventive value) on Pseudoperonospora cubensis
# Method: (§1) Calculation of Preventive Value: Preventive value={(untreated lesion area rate−treated lesion area rate)/untreated lesion area rate}×100
# (§2) Using the thus calculated preventive value, the control effect of each compound was determined in accordance with the following standards.
# (§3) High control effect: 100%≧preventive value≧60%
# (§4) Low control effect: 60%>preventive value≧0%
# Using a spray gun, an agent solution prepared by adjusting a 10% wettable powder of each sample compound to 125 ppm (hereinafter referred to as a “sample agent solution”) was sprayed to potted cucumber plants (variety: Sagamihanjiro, 2.5 leave stage) in a concentration of 15 ml/pot. One day after the spraying, a conidial suspension of Pseudoperonospora cubensis (conidial concentration: 1.0×10^4 cells/ml) was applied to the plants by spray inoculation. After completion of the inoculation, the plants were left at 21° C. under wet chamber conditions for 1 day, and were then left in a greenhouse for 3 days, so that they were fully infected with the aforementioned disease. Thereafter, the disease level on each leaf was compared with that on an untreated leaf, and the control effect of each compound was determined in the same manner as in Example 3(1).
# [2] = tested on: Sphaerotheca fuliginea; assay: Test of examining control effect on Sphaerotheca fuliginea (potted cucumber plants); settings: Podosphaera fuliginea, 336 h; 10% wettable powder adjusted to 125 ppm, 15 ml/pot sprayed on potted cucumber plants one day before spray inoculation; assessed after 14 days in greenhouse; read-out: Determination of control effect (preventive value) on Sphaerotheca fuliginea
# Method: as §1, §2, §3, §4
# Using a spray gun, an agent solution prepared by adjusting a 10% wettable powder of each sample compound to 125 ppm (hereinafter referred to as a “sample agent solution”) was sprayed to potted cucumber plants (variety: Sagamihanjiro, 2nd leave stage) in a concentration of 15 ml/pot. One day after the spraying, a conidial suspension of Sphaerotheca fuliginea (conidial concentration: 1.0×10^5 cells/ml) was applied to the plants by spray inoculation. The plants were left in a greenhouse for 14 days, so that they were fully infected with the aforementioned disease. Thereafter, the disease level on each leaf was compared with that on an untreated leaf, and the control effect of each compound was determined in the same manner as in Example 3(1).
# [3] = tested on: Phytophthora infestans; assay: whole plant or invertebrate; settings: in Solanum lycopersicum, 96 h, read-out: Determination of control effect (preventive value)
structure (smiles),measurement,setting,value
"CC(C)CC#CCCNc1ncnc2sccc12 [compound 7, 4-(6-Methyl-3-heptynylamino)thieno[2,3-d]pyrimidine]",pest or weed control at 125 µg/mL,[1],60 to 100%
same,pest or weed control at 125 µg/mL,[2],60 to 100%
same,pest or weed control at 125 ppm,[3],60 to 100%
COc1ccccc1C#CCC(C)Nc1ncnc2sccc12 (stereo not drawn) [compound 236],pest or weed control at 125 µg/mL,[1],60 to 100%
same,pest or weed control at 125 µg/mL,[2],60 to 100%
same,pest or weed control at 125 ppm,[3],0 to 60%
FCc1ccccc1C#CCCNc1ncnc2ccccc12 [compound 99],pest or weed control at 125 µg/mL,[1],60 to 100%
same,pest or weed control at 125 µg/mL,[2],60 to 100%
same,pest or weed control at 125 ppm,[3],60 to 100%
C(#Cc1ccnc2ccccc12)CCNc1ncnc2ccccc12 [compound 189],pest or weed control at 125 µg/mL,[1],60 to 100%
same,pest or weed control at 125 µg/mL,[2],60 to 100%
same,pest or weed control at 125 ppm,[3],0 to 60%
C=CC(CC#Cc1ccccc1)Nc1ncnc2ccccc12 (stereo not drawn) [compound 296],pest or weed control at 125 µg/mL,[1],60 to 100%
same,pest or weed control at 125 µg/mL,[2],60 to 100%
same,pest or weed control at 125 ppm,[3],60 to 100%
FC(F)c1ccccc1C#CCCNc1ncnc2ccccc12 [compound 100],pest or weed control at 125 µg/mL,[1],60 to 100%
same,pest or weed control at 125 µg/mL,[2],60 to 100%
same,pest or weed control at 125 ppm,[3],60 to 100%
COC(=O)c1ccc(C#CCCNc2ncnc3sccc23)cc1 [compound 31],pest or weed control at 125 µg/mL,[1],60 to 100%
same,pest or weed control at 125 µg/mL,[2],0 to 60%
same,pest or weed control at 125 ppm,[3],0 to 60%
CC(CC#Cc1ccc(Cl)cc1C(F)(F)F)Nc1ncnc2cc(F)ccc12 (stereo not drawn) [compound 344],pest or weed control at 125 µg/mL,[1],60 to 100%
same,pest or weed control at 125 µg/mL,[2],60 to 100%
same,pest or weed control at 125 ppm,[3],0 to 60%
CN(C)c1ccc(C#CCCNc2ncnc3ccccc23)cc1 [compound 159],pest or weed control at 125 µg/mL,[1],60 to 100%
same,pest or weed control at 125 µg/mL,[2],60 to 100%
same,pest or weed control at 125 ppm,[3],0 to 60%
CCCC(CC#Cc1ccccc1)Nc1ncnc2sccc12 (stereo not drawn) [compound 268],pest or weed control at 125 µg/mL,[1],60 to 100%
same,pest or weed control at 125 µg/mL,[2],60 to 100%
same,pest or weed control at 125 ppm,[3],0 to 60%
COCc1ccccc1C#CCCNc1ncnc2ccc(OCc3ccccc3)cc12 [compound 340],pest or weed control at 125 µg/mL,[1],60 to 100%
same,pest or weed control at 125 µg/mL,[2],0 to 60%
same,pest or weed control at 125 ppm,[3],0 to 60%
CSc1ncnc(NCCC#Cc2ccccc2C(F)(F)F)c1[N+](=O)[O-] [compound 371],pest or weed control at 125 µg/mL,[1],0 to 60%
same,pest or weed control at 125 µg/mL,[2],0 to 60%
same,pest or weed control at 125 ppm,[3],0 to 60%
CC(C)OCc1ccccc1C#CCCNc1ncnc2ccccc12 [compound 154],pest or weed control at 125 µg/mL,[1],60 to 100%
same,pest or weed control at 125 µg/mL,[2],60 to 100%
same,pest or weed control at 125 ppm,[3],60 to 100%
CC(CC#Cc1ccc(S(C)(=O)=O)cc1Cl)Nc1ncnc2sccc12 (stereo not drawn) [compound 256],pest or weed control at 125 µg/mL,[1],60 to 100%
same,pest or weed control at 125 µg/mL,[2],60 to 100%
same,pest or weed control at 125 ppm,[3],60 to 100%
Brc1csc(C#CCCNc2ncnc3sccc23)n1 [compound 64],pest or weed control at 125 µg/mL,[1],60 to 100%
same,pest or weed control at 125 µg/mL,[2],0 to 60%
same,pest or weed control at 125 ppm,[3],0 to 60%
CC(F)c1ncnc(NCCC#Cc2ccccc2)c1Br (stereo not drawn) [compound 375],pest or weed control at 125 µg/mL,[1],60 to 100%
same,pest or weed control at 125 µg/mL,[2],60 to 100%
same,pest or weed control at 125 ppm,[3],60 to 100%
Fc1cccc2c(NCCC#Cc3ccccc3C(F)(F)F)ncnc12 [compound 306],pest or weed control at 125 µg/mL,[1],60 to 100%
same,pest or weed control at 125 µg/mL,[2],60 to 100%
same,pest or weed control at 125 ppm,[3],60 to 100%
COCc1ccccc1C#CCCNc1ncnc2cccc(F)c12 [compound 318],pest or weed control at 125 µg/mL,[1],60 to 100%
same,pest or weed control at 125 µg/mL,[2],60 to 100%
same,pest or weed control at 125 ppm,[3],60 to 100%
"C(#Cc1csc(Oc2ccccc2)n1)CCNc1ncnc2sccc12 [compound 83, 4-[4-(2-Phenoxythiazol-4-yl)-3-butynylamino]thieno[2,3-d]pyrimidine]",pest or weed control at 125 µg/mL,[1],60 to 100%
same,pest or weed control at 125 µg/mL,[2],60 to 100%
same,pest or weed control at 125 ppm,[3],0 to 60%
CC(CC#Cc1ccc(Cl)cc1C(F)(F)F)Nc1ncnc(C(C)Cl)c1Cl (stereo not drawn) [compound 383],pest or weed control at 125 µg/mL,[1],60 to 100%
same,pest or weed control at 125 µg/mL,[2],60 to 100%
same,pest or weed control at 125 ppm,[3],0 to 60%
C(#Cc1csc(N2CCCCC2)n1)CCNc1ncnc2ccccc12 [compound 228],pest or weed control at 125 µg/mL,[1],60 to 100%
same,pest or weed control at 125 µg/mL,[2],0 to 60%
same,pest or weed control at 125 ppm,[3],0 to 60%
FC(F)(F)c1ccccc1C#CCCNc1ncnc2ccccc12 [compound 101],pest or weed control at 125 µg/mL,[1],60 to 100%
same,pest or weed control at 125 µg/mL,[2],60 to 100%
same,pest or weed control at 125 ppm,[3],60 to 100%
Cc1cc(C)c(C#CCCNc2ncnc3ccccc23)c(C)c1 [compound 181],pest or weed control at 125 µg/mL,[1],60 to 100%
same,pest or weed control at 125 µg/mL,[2],60 to 100%
same,pest or weed control at 125 ppm,[3],0 to 60%
